Measurements: PMC5218480 (PLoS ONE, 2017)

System: MV-4-11 cells
Experiment: Gene expression microarray analysis (Affymetrix PrimeView) and GSEA
Type: cell-based, human
Set-up: RFU PODN (11730768_x_at) / Fold change /veh PODN (11730768_x_at) / RFU LINC00158 (11744669_a_at) / Fold change /veh LINC00158 (11744669_a_at) / RFU DUSP10 (11751237_a_at) / Fold change /veh DUSP10 (11751237_a_at) / RFU ID3 (11757404_x_at) / Fold change /veh ID3 (11757404_x_at) / RFU PLEKHG5 (11737974_s_at) / Fold change /veh PLEKHG5 (11737974_s_at) / RFU LRRC4B (11730491_at) / Fold change /veh LRRC4B (11730491_at) / RFU GIMAP4 (11747438_a_at) / Fold change /veh GIMAP4 (11747438_a_at) / RFU KRT8 (11758183_x_at) / Fold change /veh KRT8 (11758183_x_at) / RFU CNN1 (11734310_a_at) / Fold change /veh CNN1 (11734310_a_at) / RFU VPS37D (11726825_at) / Fold change /veh VPS37D (11726825_at) / RFU C10orf10 (11716522_x_at) / Fold change /veh C10orf10 (11716522_x_at) / RFU KIR2DL2 /// KIR2DL4 /// KIR2DL5A /// KIR2DL5B /// KIR2DS1 /// KIR2DS2 /// KIR2DS3 /// KIR2DS4 /// KIR3DL3 /// KIR3DL3 /// KIR3DS1 (11738374_at) / Fold change /veh KIR2DL2 /// KIR2DL4 /// KIR2DL5A /// KIR2DL5B /// KIR2DS1 /// KIR2DS2 /// KIR2DS3 /// KIR2DS4 /// KIR3DL3 /// KIR3DL3 /// KIR3DS1 (11738374_at) / RFU C1QL1 (11718748_at) / Fold change /veh C1QL1 (11718748_at) / RFU TMPRSS4 (11747572_a_at) / Fold change /veh TMPRSS4 (11747572_a_at) / RFU HAMP (11756126_x_at) / Fold change /veh HAMP (11756126_x_at) / RFU RNFT2 (11725882_a_at) / Fold change /veh RNFT2 (11725882_a_at) / RFU NR4A2 (11747474_a_at) / Fold change /veh NR4A2 (11747474_a_at) / RFU ABCC12 (11746883_a_at) / Fold change /veh ABCC12 (11746883_a_at) / RFU TMEM136 (11760407_x_at) / Fold change /veh TMEM136 (11760407_x_at) / RFU CLDN22 /// WWC2 (11732394_at) / Fold change /veh CLDN22 /// WWC2 (11732394_at) / RFU HLA-DPB1 (11760878_x_at) / Fold change /veh HLA-DPB1 (11760878_x_at) / RFU SPINT1 (11716480_a_at) / Fold change /veh SPINT1 (11716480_a_at) / RFU GAP43 (11754022_s_at) / Fold change /veh GAP43 (11754022_s_at) / RFU A4GNT (11735810_at) / Fold change /veh A4GNT (11735810_at) / RFU PRB3 (11715151_x_at) / Fold change /veh PRB3 (11715151_x_at) / RFU TUBB4B (11761932_at) / Fold change /veh TUBB4B (11761932_at) / RFU CAPN14 (11732068_a_at) / Fold change /veh CAPN14 (11732068_a_at) / RFU TMCC2 (11721928_a_at) / Fold change /veh TMCC2 (11721928_a_at) / RFU IRGQ (11745062_a_at) / Fold change /veh IRGQ (11745062_a_at) / RFU FAM174B (11720279_a_at) / Fold change /veh FAM174B (11720279_a_at) / RFU TMPRSS4 (11748680_a_at) / Fold change /veh TMPRSS4 (11748680_a_at) / RFU FAM212B (11763350_a_at) / Fold change /veh FAM212B (11763350_a_at) / RFU PLEKHG5 (11743358_a_at) / Fold change /veh PLEKHG5 (11743358_a_at) / RFU ZSCAN30 (11745921_a_at) / Fold change /veh ZSCAN30 (11745921_a_at) / RFU CMKLR1 (11741424_a_at) / Fold change /veh CMKLR1 (11741424_a_at) / RFU LOC101060620 /// MAPK8IP1 (11723275_at) / Fold change /veh LOC101060620 /// MAPK8IP1 (11723275_at) / RFU SPTSSB (11747773_x_at) / Fold change /veh SPTSSB (11747773_x_at) / RFU PRSS12 (11739890_at) / Fold change /veh PRSS12 (11739890_at) / RFU BIN1 (11741810_x_at) / Fold change /veh BIN1 (11741810_x_at) / RFU WNT11 (11732464_a_at) / Fold change /veh WNT11 (11732464_a_at) / RFU C10orf10 (11716521_a_at) / Fold change /veh C10orf10 (11716521_a_at) / RFU C5orf56 (11738089_at) / Fold change /veh C5orf56 (11738089_at) / RFU CYB561 (11721691_x_at) / Fold change /veh CYB561 (11721691_x_at) / RFU ANKRD19P (11752326_a_at) / Fold change /veh ANKRD19P (11752326_a_at) / RFU OR2T12 /// OR2T33 /// OR2T8 (11738714_s_at) / Fold change /veh OR2T12 /// OR2T33 /// OR2T8 (11738714_s_at) / RFU VCAN (11748164_a_at) / Fold change /veh VCAN (11748164_a_at) / RFU JSRP1 (11732532_at) / Fold change /veh JSRP1 (11732532_at) / RFU KRTAP10-11 (11738290_x_at) / Fold change /veh KRTAP10-11 (11738290_x_at) / RFU MYO3A (11730013_a_at) / Fold change /veh MYO3A (11730013_a_at) / RFU EBF3 (11725865_a_at) / Fold change /veh EBF3 (11725865_a_at) / RFU CAMK2N1 (11719241_x_at) / Fold change /veh CAMK2N1 (11719241_x_at) / RFU C5orf56 (11738088_a_at) / Fold change /veh C5orf56 (11738088_a_at) / RFU OLFML3 (11715873_a_at) / Fold change /veh OLFML3 (11715873_a_at) / RFU LOC100653217 /// NTM (11731650_a_at) / Fold change /veh LOC100653217 /// NTM (11731650_a_at) / RFU MAPK11 (11762145_a_at) / Fold change /veh MAPK11 (11762145_a_at) / RFU FIZ1 (11724087_x_at) / Fold change /veh FIZ1 (11724087_x_at) / RFU OASL (11726364_x_at) / Fold change /veh OASL (11726364_x_at) / RFU SOX15 (11748057_x_at) / Fold change /veh SOX15 (11748057_x_at) / RFU CD79A (11719716_a_at) / Fold change /veh CD79A (11719716_a_at) / RFU HIST1H1D (11736915_at) / Fold change /veh HIST1H1D (11736915_at) / RFU CASKIN2 (11723855_a_at) / Fold change /veh CASKIN2 (11723855_a_at) / RFU LOC730098 (11760151_x_at) / Fold change /veh LOC730098 (11760151_x_at) / RFU OR4N2 (11742367_at) / Fold change /veh OR4N2 (11742367_at) / RFU PRRT2 (11749266_a_at) / Fold change /veh PRRT2 (11749266_a_at) / RFU SNX32 (11753110_a_at) / Fold change /veh SNX32 (11753110_a_at) / RFU CDHR5 (11726645_a_at) / Fold change /veh CDHR5 (11726645_a_at) / RFU RCAN1 (11760418_a_at) / Fold change /veh RCAN1 (11760418_a_at) / RFU FAM167A (11723789_a_at) / Fold change /veh FAM167A (11723789_a_at) / RFU FAM26E (11764081_at) / Fold change /veh FAM26E (11764081_at) / RFU ISYNA1 (11749810_s_at) / Fold change /veh ISYNA1 (11749810_s_at) / RFU ACY1 (11761880_at) / Fold change /veh ACY1 (11761880_at) / RFU 11764098_at / Fold change /veh 11764098_at / RFU SAMD14 (11745864_x_at) / Fold change /veh SAMD14 (11745864_x_at) / RFU NPB (11741838_a_at) / Fold change /veh NPB (11741838_a_at) / RFU TMPRSS6 (11731388_a_at) / Fold change /veh TMPRSS6 (11731388_a_at) / RFU KRTAP10-2 (11738614_at) / Fold change /veh KRTAP10-2 (11738614_at) / RFU ARHGAP8 /// PRR5-ARHGAP8 (11727945_x_at) / Fold change /veh ARHGAP8 /// PRR5-ARHGAP8 (11727945_x_at) / RFU KRTAP5-7 /// NADSYN1 (11734609_at) / Fold change /veh KRTAP5-7 /// NADSYN1 (11734609_at) / RFU RASL12 (11751679_a_at) / Fold change /veh RASL12 (11751679_a_at) / RFU CDKN2B (11736163_a_at) / Fold change /veh CDKN2B (11736163_a_at) / RFU PRF1 (11729649_at) / Fold change /veh PRF1 (11729649_at) / RFU, ZNF638 /// ZNF638-IT1 / Fold change vs veh, ZNF638 /// ZNF638-IT1 / RFU, PANK3 / Fold change vs veh, PANK3 / RFU, SH3YL1 / Fold change vs veh, SH3YL1 / RFU, ZEB2 / Fold change vs veh, ZEB2 / RFU, NRIP1 / Fold change vs veh, NRIP1 / RFU, PTTG1IP / Fold change vs veh, PTTG1IP / RFU, CAPN2 / Fold change vs veh, CAPN2 / RFU, MED14 / Fold change vs veh, MED14 / RFU, SNORA58 / Fold change vs veh, SNORA58 / RFU, C1orf63 / Fold change vs veh, C1orf63 / RFU, LRRFIP1 / Fold change vs veh, LRRFIP1 / RFU, NDUFAF7 / Fold change vs veh, NDUFAF7 / RFU, SLC12A2 / Fold change vs veh, SLC12A2 / RFU, IBTK / Fold change vs veh, IBTK / RFU, ESF1 / Fold change vs veh, ESF1 / Fold change vs veh, TMEM50B / RFU, TAOK1 / Fold change vs veh, TAOK1 / RFU, ACBD3 / Fold change vs veh, ACBD3 / RFU, TMA16 / Fold change vs veh, TMA16 / RFU, RWDD3 / Fold change vs veh, RWDD3 / RFU, BCAT1 / Fold change vs veh, BCAT1 / RFU, EDEM3 / Fold change vs veh, EDEM3 / RFU, TMEM33 / Fold change vs veh, TMEM33 / RFU, WDR75 / Fold change vs veh, WDR75 / RFU, AHCTF1 / Fold change vs veh, AHCTF1 / RFU, TFRC / Fold change vs veh, TFRC / RFU, ZDHHC17 / Fold change vs veh, ZDHHC17 / RFU, NOM1 / Fold change vs veh, NOM1 / RFU, ARL8B / Fold change vs veh, ARL8B / RFU, ZBTB11 / Fold change vs veh, ZBTB11 / RFU, TAMM41 / Fold change vs veh, TAMM41 / RFU, KIAA1704 /// LOC100996395 / Fold change vs veh, KIAA1704 /// LOC100996395 / RFU, ING1 / Fold change vs veh, ING1 / RFU, TRMT61B / Fold change vs veh, TRMT61B / RFU, FUBP3 / Fold change vs veh, FUBP3 / RFU, TP53 / Fold change vs veh, TP53 / RFU, TNKS2 / Fold change vs veh, TNKS2 / RFU, ZFP14 / Fold change vs veh, ZFP14 / RFU, ACTR2 / Fold change vs veh, ACTR2 / RFU, PPP3R1 / Fold change vs veh, PPP3R1 / RFU, PIK3R1 / Fold change vs veh, PIK3R1 / RFU, HNRNPA1 / Fold change vs veh, HNRNPA1 / RFU, RNF170 / Fold change vs veh, RNF170 / RFU, ZNF28 / Fold change vs veh, ZNF28 / RFU, RNGTT / Fold change vs veh, RNGTT / RFU, OGT / Fold change vs veh, OGT / RFU, BRD1 / Fold change vs veh, BRD1 / RFU, MARS / Fold change vs veh, MARS / RFU, ZNF655 / Fold change vs veh, ZNF655 / RFU, FAHD1 / Fold change vs veh, FAHD1 / RFU, BDP1 / Fold change vs veh, BDP1 / RFU, LRRCC1 / Fold change vs veh, LRRCC1 / RFU, ARID1A / Fold change vs veh, ARID1A / RFU, ZNF146 / Fold change vs veh, ZNF146 / RFU, ZNF330 / Fold change vs veh, ZNF330 / RFU, GPN3 / Fold change vs veh, GPN3 / RFU, C9orf123 / Fold change vs veh, C9orf123 / RFU, N4BP2L2 / Fold change vs veh, N4BP2L2 / RFU, ARFIP1 / Fold change vs veh, ARFIP1 / RFU, FAM179B / Fold change vs veh, FAM179B / RFU, BCL10 / Fold change vs veh, BCL10 / RFU, UHRF1BP1L / Fold change vs veh, UHRF1BP1L / RFU, BET1 / Fold change vs veh, BET1 / RFU, CNOT2 / Fold change vs veh, CNOT2 / RFU, ZNF268 / Fold change vs veh, ZNF268 / Fold change vs veh, ZNF507 / RFU, DGCR2 / Fold change vs veh, DGCR2 / RFU, WDSUB1 / Fold change vs veh, WDSUB1 / Fold change vs veh, HSP90B1 /// MIR3652 / RFU, ADSS / Fold change vs veh, ADSS / RFU, GK / Fold change vs veh, GK / RFU, ZNF148 / Fold change vs veh, ZNF148 / RFU, TAF9 / Fold change vs veh, TAF9 / RFU, SLC1A5 / Fold change vs veh, SLC1A5 / RFU, SLMO2 / Fold change vs veh, SLMO2 / RFU, ABCC4 / Fold change vs veh, ABCC4 / RFU, LOC101060439 /// RAP1B / Fold change vs veh, LOC101060439 /// RAP1B / RFU, RFX7 / Fold change vs veh, RFX7 / RFU, GTPBP10 / Fold change vs veh, GTPBP10 / RFU, CNEP1R1 / Fold change vs veh, CNEP1R1 / RFU, BIVM-ERCC5 /// ERCC5 / Fold change vs veh, BIVM-ERCC5 /// ERCC5 / RFU, ILF3 / Fold change vs veh, ILF3 / RFU 11762660_at / Fold change /veh 11762660_at / RFU VCAN (11757783_s_at) / Fold change /veh VCAN (11757783_s_at) / RFU DDX43 (11728927_at) / Fold change /veh DDX43 (11728927_at) / RFU KRT8 (11758188_x_at) / Fold change /veh KRT8 (11758188_x_at) / RFU NKD1 (11759106_at) / Fold change /veh NKD1 (11759106_at) / RFU SRD5A1 (11742802_a_at) / Fold change /veh SRD5A1 (11742802_a_at) / RFU TPSAB1 /// TPSB2 (11721975_s_at) / Fold change /veh TPSAB1 /// TPSB2 (11721975_s_at) / RFU GSTM3 (11746129_a_at) / Fold change /veh GSTM3 (11746129_a_at) / RFU IL23R (11737362_x_at) / Fold change /veh IL23R (11737362_x_at) / RFU TMEM51 (11727254_a_at) / Fold change /veh TMEM51 (11727254_a_at) / RFU PIWIL2 (11732686_x_at) / Fold change /veh PIWIL2 (11732686_x_at) / RFU ORM1 (11744905_x_at) / Fold change /veh ORM1 (11744905_x_at) / RFU CCDC152 (11743942_at) / Fold change /veh CCDC152 (11743942_at) / RFU ECM1 (11717891_a_at) / Fold change /veh ECM1 (11717891_a_at) / RFU IL23R (11748794_a_at) / Fold change /veh IL23R (11748794_a_at) / RFU TNFAIP8L3 (11732012_x_at) / Fold change /veh TNFAIP8L3 (11732012_x_at) / RFU MBOAT4 (11741988_at) / Fold change /veh MBOAT4 (11741988_at) / RFU 11764193_at / Fold change /veh 11764193_at / RFU TMEM53 (11763286_at) / Fold change /veh TMEM53 (11763286_at) / RFU MAGEB2 (11727129_at) / Fold change /veh MAGEB2 (11727129_at) / RFU TMEM200A (11744735_a_at) / Fold change /veh TMEM200A (11744735_a_at) / RFU CCDC152 (11751479_a_at) / Fold change /veh CCDC152 (11751479_a_at) / RFU FAM211A (11726209_a_at) / Fold change /veh FAM211A (11726209_a_at) / RFU RGS16 (11746705_a_at) / Fold change /veh RGS16 (11746705_a_at) / RFU VCAN (11755009_s_at) / Fold change /veh VCAN (11755009_s_at) / RFU RHOB (11743442_s_at) / Fold change /veh RHOB (11743442_s_at) / RFU RGS16 (11720943_a_at) / Fold change /veh RGS16 (11720943_a_at) / RFU RGS16 (11720944_at) / Fold change /veh RGS16 (11720944_at) / RFU, VPS4B / Fold change vs veh, VPS4B / RFU, CREB1 / Fold change vs veh, CREB1 / RFU, DNAJC13 / Fold change vs veh, DNAJC13 / RFU, GNAQ / Fold change vs veh, GNAQ / RFU, CDK5R1 / Fold change vs veh, CDK5R1 / RFU, ZRANB3 / Fold change vs veh, ZRANB3 / RFU, CUL4A / Fold change vs veh, CUL4A / RFU, CCNY / Fold change vs veh, CCNY / RFU, UFL1 / Fold change vs veh, UFL1 / RFU, COG3 / Fold change vs veh, COG3 / RFU, DIAPH2 / Fold change vs veh, DIAPH2 / RFU, SKA2 / Fold change vs veh, SKA2 / RFU, AFF3 / Fold change vs veh, AFF3 / RFU, LMF1 / Fold change vs veh, LMF1 / RFU, IPO11 / Fold change vs veh, IPO11 / RFU, DFFB / Fold change vs veh, DFFB / RFU, FOXP1 / Fold change vs veh, FOXP1 / RFU, CARD8 / Fold change vs veh, CARD8 / RFU, STRN3 / Fold change vs veh, STRN3 / RFU, ADK / Fold change vs veh, ADK / RFU, RASSF2 / Fold change vs veh, RASSF2 / RFU, WIPF1 / Fold change vs veh, WIPF1 / RFU, LARP1B / Fold change vs veh, LARP1B / RFU, RASA1 / Fold change vs veh, RASA1 / RFU, RB1 / Fold change vs veh, RB1 / RFU, PPFIA1 / Fold change vs veh, PPFIA1 / RFU, MAT2A / Fold change vs veh, MAT2A / RFU, CCT5 / Fold change vs veh, CCT5 / RFU, WDR92 / Fold change vs veh, WDR92 / RFU, CUX1 / Fold change vs veh, CUX1 / RFU, TTC7A / Fold change vs veh, TTC7A / RFU, TMEM135 / Fold change vs veh, TMEM135 / RFU, DEPTOR / Fold change vs veh, DEPTOR / RFU, CPM / Fold change vs veh, CPM / RFU, DNAJB6 / Fold change vs veh, DNAJB6 / RFU, CACNA2D3 / Fold change vs veh, CACNA2D3 / RFU, DTX4 / Fold change vs veh, DTX4 / RFU, TFCP2 / Fold change vs veh, TFCP2 / RFU, GMCL1 /// GMCL1P1 / Fold change vs veh, GMCL1 /// GMCL1P1 / RFU, AEBP2 / Fold change vs veh, AEBP2 / RFU, SNHG1 /// SNORD22 /// SNORD25 /// SNORD26 /// SNORD27 /// SNORD28 /// SNORD29 /// SNORD31 / Fold change vs veh, SNHG1 /// SNORD22 /// SNORD25 /// SNORD26 /// SNORD27 /// SNORD28 /// SNORD29 /// SNORD31 / Fold change (Aza/veh), C12orf56 (ProbeSet 11735607_a_at) / Fold change (ACY-1035/veh), C12orf56 (ProbeSet 11735607_a_at) / Fold change (Aza/veh), FGFR1OP (ProbeSet 11751329_s_at) / Fold change (ACY-1035/veh), FGFR1OP (ProbeSet 11751329_s_at) / Fold change (Aza/veh), VPS36 (ProbeSet 11739960_a_at) / Fold change (ACY-1035/veh), VPS36 (ProbeSet 11739960_a_at) / RFU SYPL1 (11715823_x_at) / Fold change /veh SYPL1 (11715823_x_at) / RFU IGFBP7 (11715501_s_at) / Fold change /veh IGFBP7 (11715501_s_at) / RFU REEP3 (11722064_at) / Fold change /veh REEP3 (11722064_at) / RFU IGLL1 (11728026_x_at) / Fold change /veh IGLL1 (11728026_x_at): dose or concentration left out as unconfirmed
Conditions: ProbeSet 11747889_x_at; LIST B

Nc1ncn([C@@H]2O[C@H](CO)[C@@H](O)[C@H]2O)c(=O)n1 [azacitidine]
RFU, SH3YL1: 57.53 RFU
